Strand notation (5' to 3'): a small letter for the sugar, then the base; units joined by * are phosphorothioate-linked, units joined directly phosphodiester-linked; [ ] holds rarer units or linkages, { } end groups; capitals alone tell only the bases. {Chol-TEG} = cholesterol-triethylene glycol conjugate; [UNA-N] = unlocked nucleic acid (N: the base); [invdT] = inverted (3'-3') thymidine; d = 2'-deoxy (DNA); m = 2'-O-methyl; r = 2'-OH (RNA); f = 2'-fluoro
How the values were obtained:
hAAT mRNA = assay: Liver hAAT mRNA levels in PiZ mice (RT-qPCR); format: in vivo, human (expressed in PiZ mice); conditions: PiZ mice liver
Procedure: Compositions comprising double-stranded AAT expression-inhibiting oligomeric compounds were administered to PiZ mice. PiZ mice harbor the human PiZ AAT mutant allele and model human AATD (Carlson et al. Journal of Clinical Investigation 1989). […] Liver hAAT mRNA production was measured at days 3 and 10. Reduced mRNA levels correlated with decreased serum hAAT protein levels, except that mRNA reduction preceded protein reduction by a few days. The level of liver hAAT mRNA production was measured at day 3 and day 10 following a single dose of AAT RNAi agent with MLP delivery polymer in PiZ mice. A sustained decrease in liver hAAT mRNA levels was observed that correlated with the decrease observed in serum hAAT protein levels.
(§1) Human AAT protein levels in serum were monitored for 29 days. At the indicated times, blood samples were collected and assayed for hAAT by ELISA. Day 1 samples were collected prior to trigger administration. For mRNA analysis, 3-4 mice were euthanized at each of days 3, 8, 15, 22, and 29. For euthanized mice, cardiac stick were performed for serum isolation for AAT ELISA (200 μl serum). Half of the left lateral liver lobe was collected and snap-freeze in liquid nitrogen for RNA isolation. The remainder of the left lobes were embedded into paraffin blocks for PAS-D staining with hematoxylin as counter-stain. Serum hAAT levels in mice given AAT Duplex Pair SEQ ID NO: 5/6 were 95% reduced on day 8 and remained reduced to day 29, at which time they were 79% reduced. Mice given AAT Duplex Pair SEQ ID NO: 5/6 were euthanized at either day 3, 8, 15, 22 or 29. Mice given saline or Luciferase siRNA control (SEQ ID 7/8) were euthanized on day 29. Levels of hAAT mRNA in the livers were measured by RT-qPCR. The hAAT mRNA in mice given AAT Duplex Pair SEQ ID NO: 5/6 was reduced by 97% on day 3 and remained reduced on day 29, at which time levels were 56% reduced. The size of the globules and the area of the liver covered by globules was digitally quantitated from liver specimens stained with PAS-D. Duplex Pair SEQ ID NO: 5/6 treated mice had 70% smaller globules at day 15 and 62% smaller globules at day 29. The area of the liver covered with globules was 83% reduced on day 15 and 72% reduced on day 29 (FIG. 5).

hAAT = assay: Serum hAAT protein levels in PiZ mice (ELISA); format: in vivo, human (expressed in PiZ mice); conditions: for Serum hAAT normalized to day 1: PiZ mice, single IV 6 mg/kg with 6 mg/kg MLP delivery polymer; for Serum hAAT normalized to day 1 and controls: female PiZ mice, single IV 8 mg/kg + 8 mg/kg MLP delivery polymer, mice euthanized Day 29
Procedure: as §1

Z-AAT = conditions: PiZ mouse model of AATD, cited from earlier work

With “Luciferase siRNA control: Luciferase double-stranded siRNA control, SEQ ID NO: 7 and Chol-TEG SEQ ID NO: 8 (chain 1 dTfCmGfAmAfG[UNA-U]fAmCfUmCfAmGfCmGfUmAfAmGdT*dT; chain 2 {Chol-TEG}-mUrAmUfCmUfUmAfCmGfCmUfGmAfGmUfAmCfUmUfCmGfA[invdT]) [reference compound]” the “Average relative mRNA level (hAAT)” value (hAAT mRNA; one injection 8 mg/kg + 8 mg/kg MLP delivery polymer, Day 29) was 1.031, the “hAAT mRNA level” value (hAAT mRNA; single IV 6 mg/kg with 6 mg/kg MLP delivery polymer, relative to mouse β-actin mRNA, day 3) was 1.06 ± 0.20 and the “Serum hAAT normalized to day 1” value (hAAT; day 1 (reference)) was 1.00. For the same compound, the “Serum hAAT normalized to day 1” value (hAAT; day 3) was 1.110 ± 0.147, the “Serum hAAT normalized to day 1” value (hAAT; day −2 (pre-dose)) was 0.766 ± 0.219 and the “Serum hAAT normalized to day 1 and controls” value (hAAT; Day 1) was 1.000. For the same compound, the “Serum hAAT normalized to day 1 and controls” value (hAAT; Day 3) was 0.994 ± 0.153, the “Serum hAAT normalized to day 1 and controls” value (hAAT; Day 8) was 1.090 ± 0.092 and the “Serum hAAT normalized to day 1 and controls” value (hAAT; Day 15) was 0.890 ± 0.080. For the same compound, the “Serum hAAT normalized to day 1 and controls” value (hAAT; Day 22) was 1.171 ± 0.095, the “Serum hAAT normalized to day 1 and controls” value (hAAT; Day 29) was 0.797 ± 0.074 and the “Serum hAAT normalized to day 1 and controls” value (hAAT; Day −2) was 1.268 ± 0.143.
In the case of `C[C@H](CC(=O)O)[C@H]1CC[C@H]2[C@@H]3[C@@H](O)C[C@@H]4C[C@H](O)CC[C@]4(C)[C@H]3CC[C@]12C` [nor-UDCA, nor-ursodeoxycholic acid], the “apoptotic signaling and accumulation of mutant Z-AAT in hepatocytes” value (Z-AAT; associated with an increase in hepatic autophagy) is listed as “reduced apoptotic signaling and reduced accumulation of mutant Z-AAT in hepatocytes”.
In the case of `OCCN1CCN(CCCN2c3ccccc3Sc3ccc(C(F)(F)F)cc32)CC1` [fluphenazine], the “Z-AAT globules in hepatocytes and hepatic fibrosis” value (Z-AAT) is given as “mediate a reduction in Z-AAT globules in hepatocytes and ameliorated hepatic fibrosis”.
For `NC(=O)N1c2ccccc2C=Cc2ccccc21` [carbamazepine], the “Z-AAT globules in hepatocytes and hepatic fibrosis” value (Z-AAT) is listed as “mediate a reduction in Z-AAT globules in hepatocytes and ameliorated hepatic fibrosis”.
